GI50 and TGI data for 17 compounds are collected here from PubChem BioAssay (NCI).

Holding throughout (test): inhibition of tumour cell growth, NCI panel, 48 h
Test [1] relates to A549 NSCLC.
Test [2] concerns COLO 205 colon.
For test [3], the system named is EKVX NSCLC.
Test [4] relates to IGROV1 ovarian.
Test [5] relates to MALME-3M melanoma.
The subject of test [6] is MDA-MB-435.
Test [7] has as its system NCI-H226 lung.
Test [8] deals with NCI-H522 lung.
The subject of test [9] is SK-MEL-5 melanoma.
Test [10] concerns SNB-75 CNS.

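Interpolation was linear, between the two tested concentrations surrounding the appropriate level; five concentrations were tested over 48 hours in 96-well plates. GI50 is the concentration that inhibits growth by half. Definition used: TGI = concentration required for complete inhibition of growth.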

As to `NC(=Nc1nc(-c2ccccn2)cc2ccccc12)c1ccccn1`, the GI50 was 0.255 µM in [1]; 0.00195 µM in test [2]; 0.0212 µM in [4]; 0.126 µM in test [5]; 0.283 µM in [6]; 0.237 µM in test [7]. In addition, the GI50 was 0.0458 µM in [8] and 0.0462 µM in test [9]. The TGI in [1] is > 48.7 µM; in test [3], > 17.2 µM; in test [4] it was > 24.1 µM; in [6], > 100 µM; in [7] it was 23 µM; in test [9], > 78.1 µM.

Consider `O=C(Nc1ccc2c(c1)OCO2)C(=O)c1c[nH]c2cc(F)ccc12`, for which the GI50 is 2.81 µM in test [1]; 13.5 µM in test [2]; 13.3 µM in test [3]; 12.6 µM in test [4]; 3 µM in test [5]; 0.854 µM in test [6]. For the same compound, the GI50 in test [7] was 3.74 µM; in test [9] it was 0.726 µM; in test [10] it was 2.6 µM. In addition, the TGI was > 100 µM in [1]; > 100 µM in test [2]; > 100 µM in test [3]; > 100 µM in [4]; 8.61 µM in [5]; > 100 µM in test [6]. Moreover, the TGI in test [7] stood at 16.8 µM; in test [9], 10.6 µM; in test [10], 12.1 µM.

As to `COc1ccc(CNc2cnc3cc(N)cc(N)c3n2)cc1`, the GI50 in test [1] was 23 µM; in test [2] it was 33.6 µM; in [3], 14.4 µM; in test [4], 11.2 µM; in test [6], 21.7 µM; in test [8] it was 17.9 µM. The GI50 is 18.9 µM in test [9] and 42.8 µM in test [10]. The TGI was 54.1 µM in test [1]; > 100 µM in test [2]; 31.1 µM in test [3]; 29 µM in [4]; 39 µM in test [6]; 44.1 µM in [8]. Also, the TGI in test [9] was 35.2 µM; in [10], > 100 µM.

`CCCN1C(=O)/C(=C/c2ccc(O)cc2)SC1=Nc1ccc(OC)cc1`: the GI50 in test [1] was 12.5 µM; in test [2], 36.6 µM; in test [3], 12.3 µM; in [4] it was 30 µM; in test [6] it was 14.9 µM; in test [7] it was 32 µM. The GI50 in [8] is 39.9 µM; in test [9], 11 µM; in [10], 17.8 µM. Besides, the TGI in test [1] was 26.1 µM; in test [2] it was > 100 µM; in test [3] it was 27.9 µM; in test [4] it was > 100 µM; in [6], 31.2 µM; in [7], 95.5 µM. The figures for the TGI in [8], in test [9] and in test [10] were > 100 µM, 26 µM and 46.1 µM, respectively.

On to `O=C(NNC(=S)Nc1ccccc1)c1ccccn1`, for which the GI50 in [1] is 1.56 µM; in test [2], 4.05 µM; in [4], 3 µM; in [6], 4.29 µM; in test [7], 3.3 µM; in [8] it was 5.99 µM. For the same compound, the GI50 in test [9] is 2.11 µM; in [10], 5.97 µM. The TGI in test [1] is 47.7 µM; in [2] it was > 100 µM; in [4], > 100 µM; in test [6] it was > 100 µM; in test [7] it was > 100 µM; in test [8] it was > 100 µM. For the same compound, the TGI in test [9] and in test [10] was > 100 µM in each case.

As to `C=C1NC(=O)C(CC(C(=O)C(=O)Nc2c(C)cccc2C(C)(C)C)C(=O)c2ccc3ccccc3c2)C(=O)N1` (stereo unspecified), the TGI in test [1], in test [2], in test [6], in test [7], in [9] and in [10] was > 100 µM in each case.

Regarding `CO[C@@H]1[C@H]2[C@@H](C)c3ccoc3C[C@@H]2[C@@]2(C)CC[C@H](OC(=O)c3ccccc3)[C@](C)(C(=O)O)[C@]2(O)[C@@H]1OC(=O)c1ccccc1`, the GI50 in test [1] is 10.6 µM; in test [2] it was 7.34 µM; in test [3] it was 11.1 µM; in [4], > 50 µM; in [6], 7.97 µM; in test [7], 9.77 µM. In addition, the values for the GI50 in [8], in [9] and in test [10] were 34.9 µM, 7.21 µM and > 50 µM, respectively. For the same compound, the TGI is > 50 µM in [1]; 15.2 µM in test [2]; 45.6 µM in [3]; > 50 µM in test [4]; 19.5 µM in [6]; 26.7 µM in [7]. For the same compound, the TGI in test [8] was > 50 µM; in test [9], 13.7 µM; in test [10], > 50 µM.

As to `COc1cc2c(cc1OC)c1c(OC)c(OC)cc3c1c1c2sc(=S)n1CC3`, the TGI in test [1], in [2], in [3], in test [4], in [5] and in [7] was > 100 µM in each case. Also, the TGI in [8] was 34.6 µM; in [9] it was > 100 µM; in test [10], > 100 µM.

Turning to `COc1cc(CC(C(=O)O)C(=O)O)c(OC)cc1CC(C(=O)O)C(=O)O`, the TGI in test [1], in test [2], in test [3], in test [4], in [5] and in test [7] was > 100 µM throughout. The TGI in [8], in [9] and in test [10] was > 100 µM in each case.

`O=C1[C@H](Cl)[C@H]2c3cc4ccccc4nc3Oc3ccccc3N12`: the TGI in [1], in [2], in test [3], in test [4], in test [5] and in [7] was > 100 µM throughout. Besides, the TGI in test [8] was 88 µM; in test [9] it was > 100 µM; in [10], 17.7 µM.

Consider `Cc1cc(C)nc(NS(=O)(=O)c2ccc(NC(=O)c3ccc(Cl)c4c(Nc5ccc(S(=O)(=O)N=C(N)N)cc5)c5ccccc5nc34)cc2)n1`, for which the TGI in test [1], in test [2], in test [3], in [4], in test [5] and in [7] was > 100 µM throughout. Further, the TGI in test [8] is 36.1 µM; in [9] it was > 100 µM; in [10] it was > 100 µM.

In the case of `CCOC(=O)C1SC(=Nc2ccc(Cl)cc2C)N=C1C` (stereo unspecified), the TGI in [1] is 86.2 µM; in [2] it was 31 µM; in test [3] it was 75.2 µM; in [4] it was 88 µM; in [5], 39.2 µM; in [7] it was 63.5 µM. Besides, the TGI stood at 27 µM in test [8], 29.9 µM in [9] and 69.9 µM in test [10].

Turning to `COc1ccc(NC(=O)CCc2cc(C(C)(C)C)n[nH]2)cc1`, the TGI in [1], in [2], in test [3], in test [4], in test [5] and in test [7] was > 100 µM throughout. Moreover, the TGI in [8], in [9] and in test [10] was > 100 µM each time.

With `COC(=O)C1=C(O)[C@H](C(=O)OC)[C@]2(O)[C@@H](C(=O)OC)[C@H]1C[C@@H](c1ccc(OC(=O)/C=C/c3ccco3)cc1)[C@@H]2C(=O)OC`, the GI50 was 30.5 µM in test [1]; 15 µM in test [2]; 21.9 µM in test [3]; 21.7 µM in test [6]; 15.8 µM in test [7]; 27.1 µM in test [9]. Also, the TGI was > 100 µM in test [1]; 87.9 µM in [2]; 49.1 µM in test [3]; 66.8 µM in test [6]; 37.1 µM in test [7]; 94.4 µM in test [9].

On to `CC(=N)N(C)O`, for which the TGI in test [1] was > 100 µM; in [2], 33.2 µM; in test [3], > 100 µM; in test [4], > 100 µM; in test [5], > 100 µM; in [7], > 100 µM. The TGI in test [8], in test [9] and in test [10] was > 100 µM in each case.

In the case of `COc1ccc(/C=c2/sc3n(c2=O)NC(c2ccc(Cl)cc2)NN=3)cc1` (stereo unspecified), the TGI in [1], in [2], in test [3], in [4], in [5] and in test [7] was > 100 µM each time. The TGI in [8] is > 100 µM; in test [9] it was > 100 µM; in test [10] it was 78.1 µM.

As for `CCc1nc2cc(/C=C/C(=O)NO)ccc2c(=O)n1CCc1ccc(F)cc1`, the GI50 in [1] is 1.72 µM; in test [2], 1.26 µM; in test [3] it was 2.44 µM; in test [5], 1.83 µM; in [6], 1.7 µM; in test [7], 1.71 µM. In addition, the GI50 in test [8] was 1.34 µM; in test [9] it was 0.903 µM. In addition, the TGI in test [1] was determined as 4.58 µM; in test [2] it was 3.65 µM; in [3], 7.21 µM; in [5], 12.4 µM; in test [6], 4.38 µM; in test [7], 4.59 µM. Also, the values for the TGI in test [8] and in test [9] were 4.06 µM and 2.21 µM, respectively.
